Literature values as cited in patent US7705151B2, “1,6 Naphthridines useful as inhibitors of SYK kinase” (Boehringer Ingelheim Pharmaceuticals, Inc., priority 2001, dated 2010).

Legend:
[1] = system: rodent mast cells
[2] = system: human mast cells

Cc1ccc2c(=O)c3ccccc3n(CCCN)c2c1C.O=C(O)C(=O)O [ER-27319, 3,4-dimethyl-10-(3-aminopropyl)-9-acridone oxalate]
inhibition of anti-IgE mediated degranulation [1]: inhibit anti-IgE mediated degranulation | inhibition of anti-IgE mediated degranulation [2]: inhibit anti-IgE mediated degranulation
